Bounds are passed on as bounds.

This test has as its target mGluR4 (UniProt Q14833). As to the kind of experiment: mGluR4 potentiation assay: increase in response to an EC20 concentration of agonist (species not given). Format: cell-based. The note with it: EC50 for potentiation of mGluR4; table does not state human or rat. On the procedure: The disclosed compounds and compositions can be evaluated for their ability to act as a potentiator of metabotropic glutamate receptor activity, in particular mGluR4 activity, by any suitable known methodology known in the art. For example, Chinese Hamster Ovary (CHO) cells transfected with human mGluR4 or […] co-transfected with rat mGluR4 and the G-protein regulated Inwardly Rectifying Potassium channel (GIRK) were plated in clear bottom assay plates for assay in a Hamamatsu FDSS Fluorometric Plate Reader. The cells were loaded with either a Ca2+-sensitive fluorescent dye or the thallium responsive dye and the plates were washed and placed into a suitable kinetic plate reader. For human mGluR4 assays, a fluorescence baseline was established for 3-5 seconds, the disclosed compounds were then added to the cells, and the response in cells was measured. Approximately two and a half minutes later, a concentration of mGluR4 orthosteric agonist (e.g. glutamate or L-AP4) eliciting approximately 20% (EC20) of the maximal agonist response was added to the cells, and the response was measured. Two minutes later, a concentration of mGluR4 agonist (e.g. glutamate or L-AP4) eliciting 80% (EC80) of the maximal agonist response was added to the cells, and the response was measured. For rat mGluR4/GIRK experiments, a baseline was established for approximately five seconds, disclosed compounds were added, and either an EC20 or EC80 concentration of agonist was added approximately two and one half minutes later. Potentiation of the agonist response of mGluR4 by the disclosed compounds was observed as an increase in response to the EC20 concentration of agonist in the presence of compound compared to the response to agonist in the absence of compound. Similarly, antagonism of the agonist response of mGluR4 by the disclosed compounds was observed as a decrease in response to the EC80 concentration of agonist in the presence of compound compared to the response to agonist in the absence of compound.
The above described assay operated in two modes. In the first mode, a range of concentrations of the disclosed compounds are added to cells, followed by a single fixed concentration of agonist. If the compound acts as a potentiator, an EC50 value for potentiation and a maximum extent of potentiation by the compound at this concentration of agonist is determined by non-linear curve fitting. If the compound acts as a noncompetitive antagonist, an IC50 value is determined by non-linear curve fitting. In the second mode, several fixed concentrations of the disclosed compounds are added to various wells on a plate, followed by a range in concentrations of agonist for each concentration of disclosed compound. The EC50 values for the agonist at each concentration of compound are determined by non-linear curve fitting. A decrease in the EC50 value of the agonist with increasing concentrations of the sample compound (a leftward shift of the agonist concentration-response curve) is an indication of the degree of mGluR4 potentiation at a given concentration of the sample compound. A decrease in the maximal response of the agonist with increasing concentrations of the sample compounds, with or without a rightward shift in agonist potency, is an indication of the degree of noncompetitive antagonism at mGluR4. The second mode also indicates whether the sample compounds also affect the maximum response to mGluR4 to agonists.
These compounds are positive allosteric modulators (potentiators) of human and rat mGluR4 and were selective for mGluR4 compared to the other seven subtypes of metabotropic glutamate receptors.
`Cn1nc(N2CCOCC2)c2ccc(Nc3n[nH]c4cccnc34)cc21` [Example 35, N-(1-methyl-3-morpholino-1H-indazol-6-yl)-1H-pyrazolo[4,3-b]pyridin-3-amine]: the EC50 was determined as 992 nM.
As for `CC(C)CC1CC(=O)N(c2nn(C)c3cc(Nc4n[nH]c5cccnc45)ccc23)C1` (stereo not drawn) [Example 36, N-(6-((1H-pyrazolo[4,3-b]pyridin-3-yl)amino)-1-methyl-1H-indazol-3-yl)-4-isobutylpyrrolidin-2-one], the figure is 526 nM; as for `Cn1nc(O)c2ccc(Nc3n[nH]c4cccnc34)cc21` [Example 37, 6-((1H-pyrazolo[4,3-b]pyridin-3-yl)amino)-1-methyl-1H-indazol-3-ol], 3150 nM.
As for `COC(=O)CCCNc1nn(C)c2cc(Nc3n[nH]c4cccnc34)ccc12` [Example 38, methyl 4-((6-((1H-pyrazolo[4,3-b]pyridin-3-yl)amino)-1-methyl-1H-indazol-3-yl)amino)butanoate], the figure is 263 nM; as for `Cn1nc(N2CC(C)(C3CC3)CC2=O)c2ccc(Nc3n[nH]c4cccnc34)cc21` (stereo not drawn) [Example 39, 1-(6-((1H-pyrazolo[4,3-b]pyridin-3-yl)amino)-1-methyl-1H-indazol-3-yl)-4-cyclopropyl-4-methylpyrrolidin-2-one], 765 nM.
As for `C=C(c1nn(C)c2cc(Nc3n[nH]c4cccnc34)ccc12)C(F)(F)F` [Example 40, N-(1-methyl-3-(3,3,3-trifluoroprop-1-en-2-yl)-1H-indazol-6-yl)-1H-pyrazolo[4,3-b]pyridin-3-amine], the figure is 147 nM; as for `Cn1nc(N2CC(C)(C3CC3)CC2=O)c2ccc(Nc3n[nH]c4ccccc34)cc21` (stereo not drawn) [Example 41, 1-(6-((1H-indazol-3-yl)amino)-1-methyl-1H-indazol-3-yl)-4-cyclopropyl-4-methylpyrrolidin-2-one], 1420 nM; as for `CC1CCC(=O)N1c1nn(C)c2cc(Nc3n[nH]c4cccnc34)ccc12` (stereo not drawn) [Example 42, 1-(6-((1H-pyrazolo[4,3-b]pyridin-3-yl)amino)-1-methyl-1H-indazol-3-yl)-5-methylpyrrolidin-2-one], 4000 nM.
Take `[2H]C([2H])([2H])n1nc(C2CC2)c2ccc(Nc3n[nH]c4ncccc34)cc21` [Example 43, N-(3-cyclopropyl-1-(methyl-d3)-1H-indazol-6-yl)-1H-pyrazolo[3,4-b]pyridin-3-amine]: the EC50 stood at 160 nM.
As for `CC(C)Oc1nn(C)c2cc(Nc3n[nH]c4cccnc34)ccc12` [Example 44, N-(3-isopropoxy-1-methyl-1H-indazol-6-yl)-1H-pyrazolo[4,3-b]pyridin-3-amine], the figure is 413 nM; as for `Cc1cc(COc2nn(C)c3cc(Nc4n[nH]c5cccnc45)ccc23)on1` [Example 45, N-(1-methyl-3-((3-methylisoxazol-5-yl)methoxy)-1H-indazol-6-yl)-1H-pyrazolo[4,3-b]pyridin-3-amine], 104 nM; as for `CC(c1nn(C)c2cc(Nc3n[nH]c4cccnc34)ccc12)C(F)(F)F` (stereo not drawn) [Example 46, N-(1-methyl-3-(1,1,1-trifluoropropan-2-yl)-1H-indazol-6-yl)-1H-pyrazolo[4,3-b]pyridin-3-amine], 215 nM.
To `COc1ccc2[nH]nc(Nc3ccc4c(C5CC5)nn(C)c4c3)c2c1` [Example 47, N-(3-cyclopropyl-1-methyl-1H-indazol-6-yl)-5-methoxy-1H-indazol-3-amine] belongs greater than 10000 nM.
As for `Cc1ccccc1Cc1nn(C)c2cc(Nc3n[nH]c4cccnc34)ccc12` [Example 48, N-(1-methyl-3-(2-methylbenzyl)-1H-indazol-6-yl)-1H-pyrazolo[4,3-b]pyridin-3-amine], the figure is 4400 nM; as for `Cc1ccccc1Cc1nn(C)c2cc(Nc3n[nH]c4nccnc34)ccc12` [Example 49, N-(1-methyl-3-(2-methylbenzyl)-1H-indazol-6-yl)-1H-pyrazolo[3,4-b]pyrazin-3-amine], 4600 nM.
With `Cc1cc(Nc2n[nH]c3cccnc23)cc2c1cnn2C` [Example 50, N-(1,4-dimethyl-1H-indazol-6-yl)-1H-pyrazolo[4,3-b]pyridin-3-amine], the EC50 turned out to be 323 nM.
As for `Cc1cc(Nc2n[nH]c3nccnc23)cc2c1cnn2C` [Example 51, N-(1,4-dimethyl-1H-indazol-6-yl)-1H-pyrazolo[3,4-b]pyrazin-3-amine], the figure is 150 nM; as for `COc1cc(Nc2n[nH]c3cccnc23)cc2c1cnn2C` [Example 52, N-(4-methoxy-1-methyl-1H-indazol-6-yl)-1H-pyrazolo[4,3-b]pyridin-3-amine], 718 nM.
To `COc1cc(Nc2n[nH]c3nccnc23)cc2c1cnn2C` [Example 53, N-(4-methoxy-1-methyl-1H-indazol-6-yl)-1H-pyrazolo[3,4-b]pyrazin-3-amine] belongs 247 nM; to `Cn1nc(C(C)(C)O)c2ccc(Nc3n[nH]c4cccnc34)cc21` [Example 54, 2-(6-((1H-pyrazolo[4,3-b]pyridin-3-yl)amino)-1-methyl-1H-indazol-3-yl)propan-2-ol], 865 nM; to `Cn1ncc2cc(Nc3n[nH]c4cccnc34)ccc21` [Example 55, N-(1-methyl-1H-indazol-5-yl)-1H-pyrazolo[4,3-b]pyridin-3-amine], 790 nM.
For `Cn1cc2cc(Nc3n[nH]c4cccnc34)ccc2n1` [Example 56, N-(2-methyl-2H-indazol-5-yl)-1H-pyrazolo[4,3-b]pyridin-3-amine], the EC50 is 315 nM.
For the compound `Cn1ncc2cc(Nc3n[nH]c4c3CCCC4)ccc21` [Example 57, 1-methyl-N-(4,5,6,7-tetrahydro-1H-indazol-3-yl)-1H-indazol-5-amine], the EC50 was greater than 10000 nM.
To `CC(C)n1ncc2cc(Nc3n[nH]c4cccnc34)cc(Cl)c21` [Example 58, N-(7-chloro-1-isopropyl-1H-indazol-5-yl)-1H-pyrazolo[4,3-b]pyridin-3-amine] belongs 2290 nM; to `Cc1c2cc(Nc3n[nH]c4cccnc34)ccc2nn1C(C)C` [Example 59, N-(2-isopropyl-3-methyl-2H-indazol-5-yl)-1H-pyrazolo[4,3-b]pyridin-3-amine], greater than 10000 nM.
To `CC(C)n1ncc2cc(Nc3n[nH]c4nccnc34)cc(Cl)c21` [Example 60, N-(7-chloro-1-isopropyl-1H-indazol-5-yl)-1H-pyrazolo[3,4-b]pyrazin-3-amine] belongs 790 nM; to `Cc1nn(C(C)C)c2ccc(Nc3n[nH]c4cccnc34)cc12` [Example 61, N-(1-isopropyl-3-methyl-1H-indazol-5-yl)-1H-pyrazolo[4,3-b]pyridin-3-amine], 133 nM.
Consider `CC(C)n1cc2cc(Nc3n[nH]c4cccnc34)cc(Cl)c2n1` [Example 62, N-(7-chloro-2-isopropyl-2H-indazol-5-yl)-1H-pyrazolo[4,3-b]pyridin-3-amine], for which the EC50 was found to be 914 nM.
`Cn1ncc2cc(Nc3n[nH]c4cccnc34)cc(Cl)c21` [Example 63, N-(7-chloro-1-methyl-1H-indazol-5-yl)-1H-pyrazolo[4,3-b]pyridin-3-amine]: the EC50 worked out at 85 nM.
On to `Clc1cc(Nc2n[nH]c3nccnc23)cc2cnn(CC3CCC3)c12` [Example 64, N-(7-chloro-1-(cyclobutylmethyl)-1H-indazol-5-yl)-1H-pyrazolo[3,4-b]pyrazin-3-amine], for which the EC50 is 67 nM.
As for `Clc1cc(Nc2n[nH]c3cccnc23)cc2cnn(CC3CCC3)c12` [Example 65, N-(7-chloro-1-(cyclobutylmethyl)-1H-indazol-5-yl)-1H-pyrazolo[4,3-b]pyridin-3-amine], the figure is 76 nM; as for `Clc1cc(Nc2n[nH]c3cccnc23)cc2cn(CC3CCC3)nc12` [Example 66, N-(7-chloro-2-(cyclobutylmethyl)-2H-indazol-5-yl)-1H-pyrazolo[4,3-b]pyridin-3-amine], 117 nM.
For the compound `Cn1ncc2cc(Nc3n[nH]c4c3CCCC4)cc(Cl)c21` [Example 67, 7-chloro-1-methyl-N-(4,5,6,7-tetrahydro-1H-indazol-3-yl)-1H-indazol-5-amine], the EC50 is greater than 10000 nM.

These data come from patent US10526323B2, “Indazole and azaindazole substituted compounds as mGluR4 allosteric potentiators, compositions, and methods of treating neurological dysfunction” (Vanderbilt University, priority 2015, dated 2020).
